Results: patent publication US10155749B2, “Substituted benzimidazolium compounds useful in the treatment of respiratory diseases” (Boehringer Ingelheim International GmbH, priority 2015, dated 2018)

Target: T1, ENaC (Epithelial Sodium Channel) (Mus musculus, UniProt Q61180+Q9WU38+Q9WU39)
T1 construct: Mouse kidney M-1 cells were cultivated in DMEM containing 5% FCS and 5 μM dexamethasone; endogenous in cells; host or cells: Mouse kidney M-1 cells
T1 sequence (Q61180 1-699): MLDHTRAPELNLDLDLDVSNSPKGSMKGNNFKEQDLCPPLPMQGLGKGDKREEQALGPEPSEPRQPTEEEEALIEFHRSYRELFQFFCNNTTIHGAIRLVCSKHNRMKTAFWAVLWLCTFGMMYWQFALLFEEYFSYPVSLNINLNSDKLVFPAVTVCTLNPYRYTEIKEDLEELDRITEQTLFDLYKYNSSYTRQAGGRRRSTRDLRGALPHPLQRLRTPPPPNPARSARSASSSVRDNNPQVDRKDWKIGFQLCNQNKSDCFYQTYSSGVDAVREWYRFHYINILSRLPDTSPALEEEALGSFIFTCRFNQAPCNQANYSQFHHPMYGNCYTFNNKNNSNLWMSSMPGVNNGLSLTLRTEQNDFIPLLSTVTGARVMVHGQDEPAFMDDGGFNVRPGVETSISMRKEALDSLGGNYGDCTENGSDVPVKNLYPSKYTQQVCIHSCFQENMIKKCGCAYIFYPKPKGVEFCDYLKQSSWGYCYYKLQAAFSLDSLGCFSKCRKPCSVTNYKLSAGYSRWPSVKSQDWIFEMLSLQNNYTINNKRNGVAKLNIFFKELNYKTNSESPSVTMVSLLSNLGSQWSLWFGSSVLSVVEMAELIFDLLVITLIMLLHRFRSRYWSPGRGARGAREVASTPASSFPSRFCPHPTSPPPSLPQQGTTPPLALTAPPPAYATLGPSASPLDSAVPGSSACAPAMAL
T1 sequence (Q9WU38 1-638): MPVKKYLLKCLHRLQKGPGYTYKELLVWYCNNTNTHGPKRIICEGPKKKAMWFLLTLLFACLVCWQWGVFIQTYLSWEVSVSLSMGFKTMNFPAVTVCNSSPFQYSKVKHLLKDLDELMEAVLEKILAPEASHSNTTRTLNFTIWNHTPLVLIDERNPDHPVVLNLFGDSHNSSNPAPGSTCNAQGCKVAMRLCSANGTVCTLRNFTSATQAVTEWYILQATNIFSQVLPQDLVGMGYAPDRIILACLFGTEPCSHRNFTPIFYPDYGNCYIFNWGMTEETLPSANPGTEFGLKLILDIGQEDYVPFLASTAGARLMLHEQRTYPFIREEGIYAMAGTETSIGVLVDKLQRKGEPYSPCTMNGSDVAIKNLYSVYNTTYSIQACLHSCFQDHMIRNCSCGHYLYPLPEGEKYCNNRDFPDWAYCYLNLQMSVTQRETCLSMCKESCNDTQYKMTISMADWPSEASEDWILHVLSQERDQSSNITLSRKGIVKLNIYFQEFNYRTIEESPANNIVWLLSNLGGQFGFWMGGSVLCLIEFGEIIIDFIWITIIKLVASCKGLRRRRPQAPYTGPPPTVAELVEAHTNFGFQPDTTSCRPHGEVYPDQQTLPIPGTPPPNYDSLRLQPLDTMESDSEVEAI
T1 sequence (Q9WU39 1-655): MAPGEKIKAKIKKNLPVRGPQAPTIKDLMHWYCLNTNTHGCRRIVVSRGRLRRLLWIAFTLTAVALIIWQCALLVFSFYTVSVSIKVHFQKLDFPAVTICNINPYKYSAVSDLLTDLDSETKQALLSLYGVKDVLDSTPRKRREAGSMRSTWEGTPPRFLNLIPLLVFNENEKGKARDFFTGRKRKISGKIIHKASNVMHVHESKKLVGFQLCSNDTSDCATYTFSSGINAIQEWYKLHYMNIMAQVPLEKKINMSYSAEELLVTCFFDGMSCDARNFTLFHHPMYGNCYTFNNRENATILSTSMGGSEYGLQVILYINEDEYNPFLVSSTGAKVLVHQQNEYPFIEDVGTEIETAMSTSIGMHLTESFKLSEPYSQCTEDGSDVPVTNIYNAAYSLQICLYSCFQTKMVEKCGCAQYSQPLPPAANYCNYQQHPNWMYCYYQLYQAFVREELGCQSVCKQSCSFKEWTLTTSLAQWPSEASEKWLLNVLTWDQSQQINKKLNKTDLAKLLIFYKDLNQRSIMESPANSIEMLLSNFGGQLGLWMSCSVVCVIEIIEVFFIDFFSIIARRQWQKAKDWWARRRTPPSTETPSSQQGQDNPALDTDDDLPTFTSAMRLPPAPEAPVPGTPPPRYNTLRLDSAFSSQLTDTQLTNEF
Assay: Ussing Chamber assay (short circuit current, amiloride sensitive I_SC) in M-1 cells
Assay type: cell-based
Details: Mouse kidney M-1 cells, apical application, 37° C.
Experimental: The IC50 values of the example compounds given above were determined in the Ussing Chamber assay.
Ussing Chamber: Mouse kidney M-1 cells were cultivated in DMEM containing 5% FCS and 5 μM dexamethasone for 10 to 12 days on polyester transwell filters. Filters were inserted into a teflon-coated well-plate which fit into the ussing chamber system. Prior to measurement the medium of M-1 cells was replaced with Caco-2 transport buffer (Invitrogen, Germany). During measurements, the Ussing chamber temperature was kept at 37° C. Short circuit currents (I_sc) were measured in the voltage-clamp mode with the software package Lab View for data acquisition and analysis. The transepithelial electrical resistance (TEER) was determined by the application of voltage steps of ±5 mV every 5 sec. Compounds were administered at a final concentration of 3 μM or at increasing concentrations (1-3-10 μM) to the apical solution. At the end of each experiment the amiloride sensitive I_SC was measured by adding 3 μM amiloride to the apical compartment. Results are expressed as inhibition in percent of the amiloride effect or as IC50.

| IC50 [nM] | Structure (SMILES) |
| --- | --- |
| 5 | CC[n+]1c(CNC(=O)c2nc(Cl)c(N)nc2N)n(CC2CCCCC2)c2cc(OCC[n+]3cccc(O)c3)ccc21 [Example 1.03] |
| 2 | CC[n+]1c(CNC(=O)c2nc(Cl)c(N)nc2N)n(CCO)c2cc(OCC(=O)NC3CCN(C(C)=O)CC3)ccc21 [Example 1.04] |
| 2 | CCCCCC(=O)N(CCOc1ccc2c(c1)n(C[C@H](C)O)c(CNC(=O)c1nc(Cl)c(N)nc1N)[n+]2CC)CP(C)(C)=O [Example 1.06] |
| 3 | CCCn1c(CNC(=O)c2nc(Cl)c(N)nc2N)[n+](C)c2ccc(OCC(=O)N(C)Cc3nc(C)ccc3O)cc21 [Example 1.07] |
| 7 | CCOc1cc2c(cc1C(=O)N1CCN(C(=O)OC(C)(C)C)CC1)[n+](CC)c(CNC(=O)c1nc(Cl)c(N)nc1N)n2CC [Example 1.09] |
| 52 | CCCCCOc1cc2c(cc1C(=O)N1CCN(C(=O)OC(C)(C)C)CC1)[n+](CC)c(CNC(=O)c1nc(Cl)c(N)nc1N)n2C[C@H](C)O [Example 1.10] |
| 10 | CCNC(=O)c1cc2c(cc1OCC(=O)OC(C)(C)C)n(CC)c(CNC(=O)c1nc(Cl)c(N)nc1N)[n+]2CC [Example 1.11] |
| 9 | CCn1c(CNC(=O)c2nc(Cl)c(N)nc2N)[n+](CC)c2cc(C(=O)NC3CCN(C(=O)OC(C)(C)C)CC3)c(OCC(=O)OC(C)(C)C)cc21 [Example 1.13] |
| 3 | CCn1c(CNC(=O)c2nc(Cl)c(N)nc2N)[n+](CCO)c2cc(OCC(=O)N3CCN(C(C)=O)CC3)ccc21 [Example 1.14] |
| 11 | CCCCCCN(C)C(=O)c1cc2c(cc1N1C[C@H](O)[C@@H](O)C1)n(CCO)c(CNC(=O)c1nc(Cl)c(N)nc1N)[n+]2CC [Example 1.16] |
| 1 | CCCn1c(CNC(=O)c2nc(Br)c(N)nc2N)[n+](C)c2ccc(OCC(=O)N(C)Cc3nc(C)ccc3O)cc21 [Example 2.01] |
| 0.4 | CCn1c(CNC(=O)c2nc(Cl)c(N)nc2N)[n+](CC)c2ccc(OCC(=O)N(C)Cc3nc(C)ccc3[O-])cc21 [Example 3.02] |
| 0.3 | CCn1c(CNC(=O)c2nc(Cl)c(N)nc2N)[n+](CC)c2ccc(OCC(=O)Nc3cncc([O-])c3)cc21 [Example 3.03] |
| 0.6 | CCCCCCN1CCC(NC(=O)COc2ccc3c(c2)n(CC)c(CNC(=O)c2nc(Cl)c(N)nc2N)[n+]3CC)CC1 [Example 3.04] |
| 1 | CCn1c(CNC(=O)c2nc(Cl)c(N)nc2N)[n+](CC)c2cc(F)c(C(=O)NCCCN(C)C)cc21 [Example 3.07] |
| 0.4 | CCn1c(CNC(=O)c2nc(Cl)c(N)nc2N)[n+](CC)c2ccc(C(=O)NCCNC(C)=O)cc21 [Example 3.08] |
| 0.2 | CCN1CCC(NC(=O)COc2ccc3c(c2)n(CC)c(CNC(=O)c2nc(Cl)c(N)nc2N)[n+]3CC)CC1 [Example 3.09] |
| 1 | CCNC(=O)CN1CCC(NC(=O)c2cc3c(cc2F)[n+](CC)c(CNC(=O)c2nc(Cl)c(N)nc2N)n3CC)CC1 [Example 3.10] |
| 2 | CCn1c(CNC(=O)c2nc(Cl)c(N)nc2N)[n+](CC)c2ccc(OCC(=O)Nc3cncc(OCc4ccccc4)c3)cc21 [Example 3.13] |
| 0.4 | CCn1c(CNC(=O)c2nc(Cl)c(N)nc2N)[n+](CC)c2ccc(C(=O)NCCNS(C)(=O)=O)cc21 [Example 3.14] |

| IC50 [nM] | Structure (SMILES) |
| --- | --- |
| 1 | CCn1c(CNC(=O)c2nc(Cl)c(N)nc2N)[n+](CC)c2cc(C(=O)N3CCN(C(=O)N4CCOCC4)CC3)c(F)cc21 [Example 3.15] |
| 4 | CCNC(=O)c1cc2c(cc1OCC(=O)NC1CCN(C)CC1)n(CC)c(CNC(=O)c1nc(Cl)c(N)nc1N)[n+]2CC [Example 3.18] |
| 9 | CCNC(=O)c1cc2c(cc1OCC(=O)NC1CCN(C(=O)OC(C)(C)C)CC1)n(CC)c(CNC(=O)c1nc(Cl)c(N)nc1N)[n+]2CC [Example 3.19] |
| 15 | CCCCCCN1CCC(NC(=O)COc2cc3c(cc2C(=O)NCC)[n+](CC)c(CNC(=O)c2nc(Cl)c(N)nc2N)n3CC)CC1 [Example 3.20] |
| 9 | CCNC(=O)c1cc2c(cc1OCC(=O)NCCOC)n(CC)c(CNC(=O)c1nc(Cl)c(N)nc1N)[n+]2CC [Example 3.21] |
| 10 | CCn1c(CNC(=O)c2nc(Cl)c(N)nc2N)[n+](CC)c2cc(C(=O)NC3CCNCC3)c(OCC(=O)NC3CCN(C)CC3)cc21 [Example 3.22] |
| 8 | CCNC(=O)COc1cc2c(cc1C(=O)NC1CCN(C(=O)OC(C)(C)C)CC1)[n+](CC)c(CNC(=O)c1nc(Cl)c(N)nc1N)n2CC [Example 3.23] |
| 0.1 | CCn1c(CNC(=O)c2nc(Cl)c(N)nc2N)[n+](CC)c2ccc(OCC(=O)NC3CCNCC3)cc21 [Example 3.24] |
| 1 | CCn1c(CNC(=O)c2nc(Cl)c(N)nc2N)[n+](CC)c2ccc(OCC(=O)NCCN)cc21 [Example 3.25] |
| 2 | CCn1c(CNC(=O)c2nc(Cl)c(N)nc2N)[n+](CC)c2ccc(OCCNC(=O)CN3CCOCC3)cc21 [Example 4.02] |
| 0.4 | CCn1c(CNC(=O)c2nc(Cl)c(N)nc2N)[n+](CC)c2ccc(CNC(=O)Cc3ncccc3O)cc21 [Example 4.03] |
| 1 | CCN(CC)CC(=O)NCCOc1ccc2c(c1)n(CC)c(CNC(=O)c1nc(Cl)c(N)nc1N)[n+]2CC [Example 4.04] |
| 0.4 | CCn1c(CNC(=O)c2nc(Cl)c(N)nc2N)[n+](CC)c2ccc(OCCNC(=O)CN3CCN(C)CC3)cc21 [Example 4.05] |
| 0.3 | CCn1c(CNC(=O)c2nc(Cl)c(N)nc2N)[n+](CC)c2ccc(OCCNC(=O)C3CCCN3C)cc21 (stereo not shown) [Example 4.06] |
| 1 | CCn1c(CNC(=O)c2nc(Cl)c(N)nc2N)[n+](CC)c2ccc(OCCNC(=O)CN3CCCC3)cc21 [Example 4.07] |
| 2 | CCn1c(CNC(=O)c2nc(Cl)c(N)nc2N)[n+](CC)c2ccc(OCCNC(=O)[C@H](C)N(C)C(=O)OC(C)(C)C)cc21 [Example 4.08] |
| 1 | CCn1c(CNC(=O)c2nc(Cl)c(N)nc2N)[n+](CC)c2ccc(OCCNC(=O)CN3CCC(NC(=O)OC(C)(C)C)CC3)cc21 [Example 4.10] |
| 2 | CCn1c(CNC(=O)c2nc(Cl)c(N)nc2N)[n+](CC)c2ccc(OCCNC(=O)C3CCCN3C(=O)OC(C)(C)C)cc21 (stereo not shown) [Example 4.11] |
| 2 | CCOc1cc2c(cc1C(=O)N1CCN(C(=O)Cc3ccccn3)CC1)[n+](CC)c(CNC(=O)c1nc(Cl)c(N)nc1N)n2CC [Example 4.12] |
| 4 | CCNC(=O)COc1cc2c(cc1C(=O)NC1CCN(C(C)=O)CC1)[n+](CC)c(CNC(=O)c1nc(Cl)c(N)nc1N)n2CC [Example 4.13] |
